# Several values for one entry are separate records, joined by “and”; a condition that tells them apart may be missing. Equal values may be shown once. Inconclusive results and toxic doses are left out.
# System: L1210 leukemia ip in BDF1 mice, survival T/C
# Assay: NCI In Vivo Anticancer Drug Screen. Data for tumor model L1210 Leukemia (intraperitoneal) in B6D2F1 (BDF1) mice
# Details: endpoint: mean survival time, higher = longer survival
# In short: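 In this screen, tumor-bearing mice given compound are compared to those given vehicle, and their survival values are reported as a treated-to-control quotient.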
# [1] = dose: 100.0 mg/kg/injection, schedule: Q01DX009 (ip), vehicle: Klucel (hydroxypropylcellulose) (HPC)
# [2] = dose: 100.0 mg/kg/injection, schedule: Q04DX003 (ip), vehicle: saline with Tween-80
# [3] = dose: 100.0 mg/kg/injection, schedule: Q04DX003 (ip), vehicle: Klucel (hydroxypropylcellulose) (HPC)
# [4] = dose: 200.0 mg/kg/injection, schedule: Q01DX009 (ip), vehicle: Klucel (hydroxypropylcellulose) (HPC)
# [5] = dose: 200.0 mg/kg/injection, schedule: Q04DX003 (ip), vehicle: Klucel (hydroxypropylcellulose) (HPC)
# [6] = dose: 400.0 mg/kg/injection, schedule: Q01DX009 (ip), vehicle: Klucel (hydroxypropylcellulose) (HPC)
# [7] = dose: 400.0 mg/kg/injection, schedule: Q04DX003 (ip), vehicle: Klucel (hydroxypropylcellulose) (HPC)
# [8] = dose: 25.0 mg/kg/injection, schedule: Q04DX002 (ip), vehicle: Klucel (hydroxypropylcellulose) (HPC)
# [9] = dose: 50.0 mg/kg/injection, schedule: Q04DX002 (ip), vehicle: Klucel (hydroxypropylcellulose) (HPC)
# [10] = dose: 100.0 mg/kg/injection, schedule: Q04DX002 (ip), vehicle: Klucel (hydroxypropylcellulose) (HPC)
# [11] = dose: 200.0 mg/kg/injection, schedule: Q04DX002 (ip), vehicle: Klucel (hydroxypropylcellulose) (HPC)
compound,measurement,setting,value
CN=NNc1ccccc1,T/C,"dose: 12.0 mg/kg/injection, schedule: Q01DX009 (ip), vehicle: saline",114 % of control
same,T/C,"dose: 12.5 mg/kg/injection, schedule: Q01DX009 (ip), vehicle: Klucel (hydroxypropylcellulose) (HPC)",100 % of control
same,T/C,"dose: 18.0 mg/kg/injection, schedule: Q01DX009 (ip), vehicle: saline",118 % of control
same,T/C,"dose: 25.0 mg/kg/injection, schedule: Q01DX009 (ip), vehicle: Klucel (hydroxypropylcellulose) (HPC)",97 % of control
same,T/C,"dose: 50.0 mg/kg/injection, schedule: Q01DX009 (ip), vehicle: Klucel (hydroxypropylcellulose) (HPC)",102 % of control
same,T/C,"dose: 75.0 mg/kg/injection, schedule: Q04DX003 (ip), vehicle: saline with Tween-80",113 % of control
same,T/C,[1],156 % of control
same,T/C,[2],121 % of control
same,T/C,"dose: 150.0 mg/kg/injection, schedule: Q04DX003 (ip), vehicle: saline with Tween-80",164 % of control
same,T/C,"dose: 337.0 mg/kg/injection, schedule: Q04DX003 (ip), vehicle: saline with Tween-80",153 % of control
CCCCCCCCCCCCCCCCCC(=O)OCC1(COC(=O)CCCCCCCCCCCCCCCCC)COC(CCCCCCCCCCCCCCCCC)=N1,T/C,"dose: 100.0 mg/kg/injection, schedule: Q01DX001 (ip), vehicle: Klucel (hydroxypropylcellulose) (HPC)",92 % of control
same,T/C,"dose: 200.0 mg/kg/injection, schedule: Q01DX001 (ip), vehicle: Klucel (hydroxypropylcellulose) (HPC)",95 % of control
same,T/C,"dose: 400.0 mg/kg/injection, schedule: Q01DX001 (ip), vehicle: Klucel (hydroxypropylcellulose) (HPC)",109 % of control
c1ccc(-c2n[nH]c(-c3ccccc3)c2-c2ccccc2)cc1,T/C,[2],92 % of control
same,T/C,"dose: 200.0 mg/kg/injection, schedule: Q04DX003 (ip), vehicle: saline with Tween-80",100 % of control
same,T/C,"dose: 400.0 mg/kg/injection, schedule: Q04DX003 (ip), vehicle: saline with Tween-80",95 % of control
CC1CC(OC(=O)CCN2CC2)CC(C)(C)C1 (centres undefined),T/C,"dose: 2.5 mg/kg/injection, schedule: Q01DX009 (ip), vehicle: Klucel (hydroxypropylcellulose) (HPC)",98 % of control
same,T/C,"dose: 5.0 mg/kg/injection, schedule: Q01DX009 (ip), vehicle: Klucel (hydroxypropylcellulose) (HPC)",101 % of control
same,T/C,"dose: 20.0 mg/kg/injection, schedule: Q01DX009 (ip), vehicle: Klucel (hydroxypropylcellulose) (HPC)",113 % of control
same,T/C,"dose: 20.0 mg/kg/injection, schedule: Q04DX003 (ip), vehicle: Klucel (hydroxypropylcellulose) (HPC)",101 % of control
same,T/C,"dose: 40.0 mg/kg/injection, schedule: Q01DX009 (ip), vehicle: Klucel (hydroxypropylcellulose) (HPC)",107 % of control
same,T/C,"dose: 40.0 mg/kg/injection, schedule: Q04DX003 (ip), vehicle: Klucel (hydroxypropylcellulose) (HPC)",97 % of control
same,T/C,"dose: 80.0 mg/kg/injection, schedule: Q04DX003 (ip), vehicle: Klucel (hydroxypropylcellulose) (HPC)",106 % of control
CC1(C)Oc2[nH]c(=O)n(-c3ccccc3)c(=O)c2C1c1ccc(Cl)cc1 (centres undefined),T/C,"dose: 12.5 mg/kg/injection, schedule: Q01DX001 (ip), vehicle: saline",94 % of control
same,T/C,"dose: 12.5 mg/kg/injection, schedule: Q04DX003 (ip), vehicle: acetone",103 % of control
same,T/C,"dose: 25.0 mg/kg/injection, schedule: Q01DX001 (ip), vehicle: saline",97 % of control
same,T/C,"dose: 25.0 mg/kg/injection, schedule: Q04DX003 (ip), vehicle: acetone",86 % of control
same,T/C,"dose: 35.0 mg/kg/injection, schedule: Q01DX009 (ip), vehicle: saline",94 % of control
same,T/C,"dose: 50.0 mg/kg/injection, schedule: Q01DX001 (ip), vehicle: saline",92 % of control
same,T/C,"dose: 55.0 mg/kg/injection, schedule: Q01DX009 (ip), vehicle: saline",96 % of control
same,T/C,"dose: 80.0 mg/kg/injection, schedule: Q01DX009 (ip), vehicle: saline",106 % of control
CC/C(=C\c1cccc([N+](=O)[O-])c1)C(=O)O,T/C,[1],97 % of control
same,T/C,[3],96 % of control
same,T/C,[4],92 % of control
same,T/C,[5],95 % of control
same,T/C,[6],100 % of control
same,T/C,[7],95 % of control
O=C(O)c1ccc(SSc2ccc(C(=O)O)cn2)nc1,T/C,"dose: 100.0 mg/kg/injection, schedule: Q04DX003 (ip), vehicle: saline",102 % of control
same,T/C,"dose: 200.0 mg/kg/injection, schedule: Q04DX003 (ip), vehicle: saline",101 % of control
same,T/C,"dose: 400.0 mg/kg/injection, schedule: Q04DX003 (ip), vehicle: saline",104 % of control
CC1(C)C2CCC1(C)C(c1ccc(O)cc1)C2 (centres undefined),T/C,[3],104 % of control
same,T/C,[5],101 % of control
same,T/C,[7],102 % of control
O=C(C[n+]1ccccc1)N/N=C/c1ccccc1O,T/C,"dose: 12.5 mg/kg/injection, schedule: Q01DX009 (ip), vehicle: saline with Tween-80",86 % of control
same,T/C,"dose: 25.0 mg/kg/injection, schedule: Q01DX009 (ip), vehicle: saline with Tween-80",86 % of control
same,T/C,"dose: 50.0 mg/kg/injection, schedule: Q01DX009 (ip), vehicle: saline with Tween-80",96 % of control
c1ccc2cc(SCCCN3CCOCC3)ccc2c1,T/C,"dose: 100.0 mg/kg/injection, schedule: Q01DX009 (ip), vehicle: saline sonified",97 % of control
same,T/C,[3],95 % of control
same,T/C,"dose: 200.0 mg/kg/injection, schedule: Q01DX009 (ip), vehicle: saline sonified",116 % of control
same,T/C,[5],95 % of control
same,T/C,[7],90 % of control
Cc1c(C(=O)NN)no[n+]1[O-],T/C,[8],96 % of control
same,T/C,[9],93 % of control
same,T/C,[10],93 % of control
NC(=S)NNc1ccccc1,T/C,"dose: 100.0 mg/kg/injection, schedule: Q04DX002 (ip), vehicle: saline with Tween-80",105 % of control
same,T/C,"dose: 200.0 mg/kg/injection, schedule: Q04DX002 (ip), vehicle: saline with Tween-80",105 % of control
O=C(COc1ccc(Cl)cc1)C1CSc2ccc3ccccc3c21 (centres undefined),T/C,"dose: 100.0 mg/kg/injection, schedule: Q04DX003 (ip), vehicle: saline sonified",88 % of control
same,T/C,"dose: 200.0 mg/kg/injection, schedule: Q04DX003 (ip), vehicle: saline sonified",89 % of control
same,T/C,"dose: 400.0 mg/kg/injection, schedule: Q04DX003 (ip), vehicle: saline sonified",88 % of control
CCOC(=O)CNc1ccc(Cl)cc1,T/C,[8],98 % of control and 106 % of control
same,T/C,[9],102 % of control
same,T/C,[10],101 % of control and 91 % of control
same,T/C,[11],102 % of control
CCN(CC)c1cc(Cl)c(C=O)cc1Br,T/C,[1],98 % of control
same,T/C,[3],105 % of control
same,T/C,[4],100 % of control
same,T/C,[5],98 % of control
same,T/C,[6],100 % of control
same,T/C,[7],104 % of control
O=C(CNC(=O)c1ccccc1)N/N=C/c1cccc2ccccc12,T/C,"dose: 100.0 mg/kg/injection, schedule: Q01DX009 (ip), vehicle: saline with Tween-80",89 % of control
same,T/C,"dose: 200.0 mg/kg/injection, schedule: Q01DX009 (ip), vehicle: saline with Tween-80",94 % of control
same,T/C,"dose: 400.0 mg/kg/injection, schedule: Q01DX009 (ip), vehicle: saline with Tween-80",94 % of control
CCCC(=O)OC(=O)N/C=C/NC(=O)OC(=O)CCC,T/C,"dose: 100.0 mg/kg/injection, schedule: Q01DX001 (ip), vehicle: alcohol",103 % of control
same,T/C,"dose: 200.0 mg/kg/injection, schedule: Q01DX001 (ip), vehicle: alcohol",103 % of control
same,T/C,"dose: 400.0 mg/kg/injection, schedule: Q01DX001 (ip), vehicle: alcohol",94 % of control
CCCCN(CCCC)C(=S)S[As](SC(=S)N(CCCC)CCCC)SC(=S)N(CCCC)CCCC,T/C,[1],97 % of control
same,T/C,[4],90 % of control
same,T/C,[6],97 % of control
Cc1ccc(N2C(=O)C=CC2=O)cc1,T/C,"dose: 100.0 mg/kg/injection, schedule: Q04DX003 (ip), vehicle: acetone",97 % of control
same,T/C,"dose: 200.0 mg/kg/injection, schedule: Q04DX003 (ip), vehicle: acetone",92 % of control
same,T/C,"dose: 400.0 mg/kg/injection, schedule: Q04DX003 (ip), vehicle: acetone",86 % of control
CCOC(=O)CC(=O)C1CCC2C3CC=C4CC(OC(=O)OCC)CCC4(C)C3CCC12C (centres undefined),T/C,"dose: 25.0 mg/kg/injection, schedule: Q01DX001 (sc), vehicle: olive oil, sesame oil, peanut oil",104 % of control
same,T/C,"dose: 50.0 mg/kg/injection, schedule: Q01DX001 (sc), vehicle: olive oil, sesame oil, peanut oil",107 % of control
same,T/C,"dose: 100.0 mg/kg/injection, schedule: Q01DX001 (sc), vehicle: olive oil, sesame oil, peanut oil",93 % of control
C[N+]1(C)CCS(=O)(=O)CC1,T/C,[10],104 % of control
same,T/C,[11],110 % of control
COc1cc(C(=O)Nc2ccccc2SC)cc(OC)c1OC,T/C,[10],100 % of control
same,T/C,[11],97 % of control
same,T/C,"dose: 400.0 mg/kg/injection, schedule: Q04DX002 (ip), vehicle: Klucel (hydroxypropylcellulose) (HPC)",90 % of control

# — PubChem BioAssay AID248 (DTP/NCI, 2004)
